Structures can show the parent of a compound that is named as a salt.
Key:
[1] = test system: Plasmodium falciparum FZ strain resistant to chloroquine; assay: Anti-paludal activity in vitro: inhibition of proliferation in continuous culture, FZ strain; assay type: cell-based; conditions: R3 type resistance, parasitemia relative to controls, incubation 48 hours, RPS 10 medium, 5% CO2, read-out: ED50 (FZ strain resistant to chloroquine)
Description: (§1) 2) Test for determining the anti-paludal activity in vitro
(§2) The culturing of Plasmodium falciparum "in vitro" was carried out in cupulas on polystyrene plates used for tissue culture. It was carried out at 37° C. in a CO2 oven by the technique of TRAGER et al (1976-1978) on a modified RPMI 1640 medium (AZOULAY et al 1983) buffered with a mixture of HEPES buffer (40 m.moles/l), glucose (4 g/l) and 10 percent human serum. The anti-malarial activity "in vitro" of the different products tested was studied on two different strains of Plasmodium falciparum, namely an FCC2 strain sensitive to chloroquine and an FZ strain resistant to chloroquine (R3 type resistance). […]
(§3) 0.7 ml of the globular suspension was deposited in each cupula and each concentration of chosen product was tested on 3 cupulas. […] After an incubation time of 48 hours without renewing the medium in a steam chest with a CO2 content of 5%, the parasitemia content of each cupula was evaluated.
(§4) To do this, the canisters were removed from the steam chest and were left for 10 minutes at rest under a hood with laminar flux. […] On these crush preparations, fixed and colored, the different forms of the parasite were counted for 2000 to 3000 red blood corpuscles per plate. The results were expressed as the percentage of proliferation relative to the controls. […]

[2] = test system: Plasmodium falciparum FCC2 strain sensitive to chloroquine; assay: Anti-paludal activity in vitro: inhibition of proliferation in continuous culture, FCC2 strain; assay type: cell-based; conditions: parasitemia relative to controls, incubation 48 hours, RPS 10 medium, 5% CO2, read-out: ED50 (FCC2 strain sensitive to chloroquine)
Description: as §1, §2, §3, §4

IC50 [1]: 0.34 µg/mL
IC50 [2]: 0.35 µg/mL
SMILES: Clc1ccc2c(N3CCC[C@@H]4CCC[C@@H](N5CCCC5)[C@@H]43)ccnc2c1 (relative stereo) [Example 2, (4a α, 8α, 8aα) (±) 1-(7-chloro-4-quinolinyl)-decahydro-8-(1-pyrrolidinyl)-quinoline dihydrochloride]
